Experimental data reported in US11154527B2, “Dermatophytosis prophylaxis and treatment” (The Children's Mercy Hospital, priority 2015, dated 2021).
Read-outs that look alike come from different tables or passages of the source.

Legend:
[1] = tested on: reference strain of T. tonsurans; test: Preliminary screening of 7,676 compounds (384 well format), growth read at 600 nm; format: cell-based, Trichophyton tonsurans; settings: preliminary screen
Method: (§1) Materials Used: • 10 mm×100 mm petri plate of dermatophyte culture grown to confluency (>14 days) on Sabouraud's dextrose agar (Becton Dickinson, Sparks Md.) containing 50 mg/L chloramphenicol and 500 mg/L cycloheximide (Sigma Chemical Company, St. Louis Mo.) (see appendix A for recipe). • 1× sterile Phosphate Buffered Saline (Sigma Chemical Company, St. Louis Mo.). • (2) 15 mL sterile disposable conical tubes (Thermo Fisher Scientific, Rochester N.Y.). • Disposable sterile inoculating loop (Fisher Scientific, Hanover Park Ill.). • Disposable sterile transfer pipette (Fisher Scientific, Hanover Park Ill.). • Sterilized 2″×2″ 4 ply gauze (Medline Industries, Mundelein Ill.) • 30 mL sterile disposable syringe (Becton Dickinson, Franklin Lakes N.J.). • Hemocytometer (Fisher Scientific, Hanover Park Ill.).
(§2) Spore Prep Procedure (performed aseptically in a biosafety cabinet): • The fungal plate was flooded with 10 mL of sterile 1×PBS and with a sterile disposable inoculating loop, then the surface was gently scraped until all the fungal material (hyphae and spores) was liberated into the PBS. • Using a disposable transfer pipette, the entire volume of PBS/spores was transferred from the plate into a sterile 15 mL conical tube. • Next, 2 mL of sterile 1×PBS was added to the plate and swirled to rinse. • Using the transfer pipette, the remaining volume of PBS/spores was transferred from the plate to the 15 mL conical. • Then, the 15 mL tube was capped and vortexed at max speed for 10-15 seconds, set aside. • The plunger from the 30 mL syringe was then removed and the barrel was packed with 1 square of sterile 2″×2″ gauze. • Using the plunger, the gauze was firmly packed at the bottom of the barrel then the plunger was removed. • The syringe barrel was placed into a new sterile 15 mL conical tube and the entire contents of the 15 mL PBS/spore suspension was poured directly onto the gauze in the syringe barrel. • The plunger was then gently inserted into the barrel and depressed all the way down to filter the spore/hyphal suspension through the gauze. • The plunger was gently removed and additional 2 mL of sterile PBS was added back to the original 15 mL conical tube.
Screening (384 well format):
Note: final concentration of DMSO was not to exceed 0.5%.
NOTE: there was residual spore suspension, the calculations above allowed for overage to ensure enough suspension is made for each plate. • Using the peristaltic pump, the automated dispenser was programmed to deliver 35 μL of 2×SabDEX broth to each well in the 384 well plate. The pump was then purged of growth media and re-primed with the spore suspension. The dispenser was then programmed to deliver 35 μL of spore suspension to each test well (to include+growth controls). • Negative growth controls were made by manually pipetting 35 μL of sterile 1×PBS from a sterile multi-channel boat into each (−) control well using a 100 μL pipette. • Each plate was given a numerical designation, dated, sealed with an EDGE® seal and placed in a 32° C. incubator for 48 hours. • After incubation, the seal was carefully removed and the plate read at 600 nm using a single point read on a microplate reader. • If more time was required, the plate was re-sealed and incubated an additional 24 hours.

[2] = tested on: reference strain of T. tonsurans; test: MIC / dose-response testing against reference strain of T. tonsurans; format: cell-based, Trichophyton tonsurans; settings: Trichophyton tonsurans
Method: as §1, §2
(§3) MIC Testing (96 well format):
(§4) To Make the Spore Suspension:
(§5) • A 2 mM stock of the compound to be tested was made in 100% DMSO in a sterile 1.5 mL microfuge tube. • Vortexed the tube vigorously for 1 minute, then protected the compound from light and rocked or shook for 1 hour at room temperature to fully dissolve. • NOTE: Because the 2× culture media was diluted with an equal volume of spore/PBS solution to achieve a 1× final media concentration, the high standard for the range of compound to be tested was made at 2× the highest concentration desired and contain a final DMSO concentration of 0.5%.
(§6) To generate the range of compound to be tested, the following dilution protocol was performed:
(§7) (a) The high standard was made:
(§8) The result was 1000 μL of a 20 μM stock in 2× Culture Medium with a final [DMSO] of 1%.
(§9) (b) The drug dilution range to be tested was made by serially diluting the high standard 1:1 with 2× Culture Medium/1% DMSO.
(§10) Aseptically added 100 μL of the drug/media manually to each well according to the plate map in FIG. 2, as follows: […]

[3] = tested on: 5 genetically distinct strain of T. tonsurans; test: MIC testing against 5 genetically distinct strains of T. tonsurans; format: cell-based; settings: Trichophyton tonsurans
Method: as §1, §2, §3, §4, §5, §6, §7, §8, §9, §10

T. rubrum = test: MIC testing against different Trichophyton species: T. rubrum; format: cell-based
Method: (§11) Materials Used: • 10 mm×100 mm petri plate of dermatophyte culture grown to confluency (>14 days) on Sabouraud's dextrose agar (Becton Dickinson, Sparks Md.) containing 50 mg/L chloramphenicol and 500 mg/L cycloheximide (Sigma Chemical Company, St. Louis Mo.) (see appendix A for recipe). • 1× sterile Phosphate Buffered Saline (Sigma Chemical Company, St. Louis Mo.). • (2) 15 mL sterile disposable conical tubes (Thermo Fisher Scientific, Rochester N.Y.). • Disposable sterile inoculating loop (Fisher Scientific, Hanover Park Ill.). • Disposable sterile transfer pipette (Fisher Scientific, Hanover Park Ill.). • Sterilized 2″×2″ 4 ply gauze (Medline Industries, Mundelein Ill.) • 30 mL sterile disposable syringe (Becton Dickinson, Franklin Lakes N.J.). • Hemocytometer (Fisher Scientific, Hanover Park Ill.). […]

T. equinum = test: MIC testing against different Trichophyton species: T. equinum; format: cell-based
Method: as §11

T. mentagrophytes = test: MIC testing against different Trichophyton species: T. mentagrophytes; format: cell-based
Method: as §11

[4] = range, reference strain of T. tonsurans (Table 2), read-out: IC50 [range]
[5] = reference strain of T. tonsurans (Table 2), read-out: IC50

SMILES	Prelim H ratio [1]	Prelim L ratio [1]	IC50 ([2]; dose response (DR plate), reference strain of T. tonsurans, read-out: rMIC50) [nM]	IC50 [2, 4] [nM]	IC50 [2, 5] [nM]	IC50 ([3]; T. tonsurans strain 0924-0254) [nM]	IC50 ([3]; T. tonsurans strain 0924-1093) [nM]	IC50 ([3]; T. tonsurans strain 0924-1456) [nM]	IC50 ([3]; T. tonsurans strain 0924-1669) [nM]	IC50 ([3]; T. tonsurans strain 1119-0616) [nM]	IC50 (T. rubrum) [nM]	IC50 (T. equinum) [nM]	IC50 (T. mentagrophytes) [nM]
COCc1c(C(C)C)nc(C(C)C)c(/C=C/[C@@H](O)C[C@@H](O)CC(=O)O)c1-c1ccc(F)cc1 [Cerivastatin]	1.06	2.28	< 10	3 to 58	10	3	5	15	5	10	68	21	19
CCC(C)(C)C(=O)O[C@H]1C[C@@H](C)C=C2C=C[C@H](C)[C@H](CC[C@@H](O)C[C@@H](O)CC(=O)O)[C@H]21 [simvistatin acid]				24 to 62	30	29	50	52	52	62	303	86	71
